Laboratory results: patent publication US12325681B2, “Inhibitors of nitric oxide synthases (NOS), pharmaceutical products thereof, and methods thereof” (Gacter Inc., priority 2022, dated 2025)
Counter-ions that a name gives are not always drawn.

Columns and labels:
iNOS [1] = target: T1, iNOS (Homo sapiens, UniProt P35228); assay: abcam NOS Inhibitor Screening Kit, IC50 (fluorescence); type: biochemical; design: IC50; IC50; conditions: abcam NOS Inhibitor Screening Kit
Description: (§1) The IC50 of some compounds of the invention was determined using the abcam NOS Inhibitor Screening Kit. The procedure includes the following steps: (1) Dissolved a test compound to 10 mM in DMSO; (2) Diluted the test compound to 1 mM in NOS Assay Buffer; (3) Diluted 1 mM of the test compound stocks to 200 μM, 50 μM, 12.5 μM, 3.125 μM, 0.781 μM, and 0.195 μM in NOS Assay Buffer; (4) Diluted 1 mM DPI Control to 50.0 μM, 12.5 μM, 3.125 μM, 0.781 μM, 0.195 μM, and 0.0488 μM in NOS Assay Buffer; (5) Diluted NOS enzyme with 400 μL of NOS Assay Buffer; (6) Combined Diluted NOS Enzyme with 1.6 mL of NOS Assay buffer then transferred 20 μL of enzyme solution to all wells of 96-well Fluorescence plate except background wells. Added 20 μL of NOS Assay buffer to background wells. (7) Transferred 10 uL of each test compound dilution to the enzyme buffer mix according to the plate map (see addendum for plate map and raw data values). (8) Incubated 15 minutes at room temperature. (9) Added 11 μL of NOS reaction mix (according to manufacturer's protocol) to each well, mixed, and incubated at 37° C. for 1 hour. (10) Added 110 μL of NOS Assay Buffer to each well followed by 5 μL of Enhancer to each well, mixed, and incubated 10 minutes at room temperature; (11) Added 10 μL of Probe to each well, mixed, and incubated 10 minutes at room temperature; and (12) Added 5 μL of NaOH to each well, mixed, and incubated 10 minutes at room temperature. Measure Fluorescence at 360 nm excitation/450 nm emission.

iNOS [2] = target: T1, iNOS; assay: as above; type: biochemical; design: Fold (GT-xxxx)/AZ 6b; conditions: ratio of IC50 to AZ 6b IC50 (0.0488 μM)
Description: as §1

SMILES | IC50 (iNOS [1]; Table C-1) [µM] | IC50 (iNOS [1]; Table C-2) [µM] | Fold (GT-xxxx)/AZ 6b (iNOS [2])
N#Cc1ccc(Cl)cc1CN(CCNC1CCC(O)CC1)c1ccccc1 (single isomer, unassigned) [GT-7023, 4-chloro-2-(((2-((4-hydroxycyclohexyl)amino)ethyl)(phenyl)amino)methyl) benzonitrile] | 10.5 |  | 
N#Cc1ccc(Cl)cc1CN(CCNC1CCC(O)CC1)c1ccccc1 (single isomer, unassigned) [GT-7024, 4-chloro-2-(((2-((4-hydroxycyclohexyl)amino)ethyl)(phenyl)amino)methyl) benzonitrile] | 14.4 |  | 
Cc1ccc(C#N)c(O[C@H](CCN)c2ccccc2)n1 [GT-5001, (R)-2-(3-amino-1-phenylpropoxy)-6-methylnicotinonitrile] | 1.59 |  | 
CNCC[C@@H](Oc1nc(C)ccc1C#N)c1ccccc1 [GT-5002, (R)-6-methyl-2-(3-(methylamino)-1-phenylpropoxy)nicotinonitrile] | 1.35 |  | 
CNCC[C@@H](Oc1nc(C)ccc1Br)c1ccccc1 [GT-5012, (R)-3-((3-bromo-6-methylpyridin-2-yl)oxy)-N-methyl-3-phenylpropan-1-amine] | 12600 |  | 
CNCC[C@@H](Oc1nc(C(F)(F)F)ccc1C#N)c1ccccc1 [GT-5013, (R)-2-(3-(methylamino)-1-phenylpropoxy)-6-(trifluoromethyl) nicotinonitrile] | 23.3 |  | 
Cc1ccc(C#N)c(O[C@H](CCNCCO)c2ccccc2)n1 [GT-5014, (R)-2-(3-((2-hydroxyethyl)amino)-1-phenylpropoxy)-6-methylnicotinonitrile] | 2.17 |  | 
Cc1ccc(C#N)c(O[C@H](CCNCCCO)c2ccccc2)n1 [GT-5015] | 1.74 |  | 
Cc1ccc(C#N)c(O[C@H](CCN2CC[C@H](O)C2)c2ccccc2)n1 [GT-5016, 2-((R)-3-((S)-3-hydroxypyrrolidin-1-yl)-1-phenylpropoxy)-6-methyl nicotinonitrile] | 4.04 |  | 
Cc1ccc(C#N)c(O[C@H](CCN2CC[C@@H](O)C2)c2ccccc2)n1 [GT-5017, 2-((R)-3-((R)-3-hydroxypyrrolidin-1-yl)-1-phenylpropoxy)-6-methyl nicotinonitrile] | 6.75 |  | 
Cc1ccc(C#N)c(O[C@H](CCNC(C)(C)C)c2ccccc2)n1 [GT-5018, (R)-2-(3-(tert-butylamino)-1-phenylpropoxy)-6-methylnicotinonitrile] | 5.04 |  | 
Cc1ccc(C#N)c(O[C@H](CCNCCN(C)C)c2ccccc2)n1 [GT-5019, (R)-2-(3-((2-(dimethylamino)ethyl)amino)-1-phenylpropoxy)-6-methyl nicotinonitrile] | 9.62 |  | 
Cc1ccc(C#N)c(O[C@H](CCNCCN2CCOCC2)c2ccccc2)n1 [GT-5020, (R)-6-methyl-2-(3-((2-morpholinoethyl)amino)-1-phenylpropoxy)nicotinonitrile] | 7.29 |  | 
Cc1ccc(C#N)c(O[C@H](CCNCCc2c[nH]cn2)c2ccccc2)n1 [GT-5023, (R)-2-(3-((2-(1H-imidazol-4-yl)ethyl)amino)-1-phenylpropoxy)-6-methylnicotinonitrile] | 5.43 |  | 
Cc1ccc(C#N)c(O[C@H](CCNC[C@H](O)CO)c2ccccc2)n1 [GT-5024, 2-((R)-3-(((S)-2,3-dihydroxypropyl)amino)-1-phenylpropoxy)-6-methylnicotinonitrile] | 2.34 |  | 
Cc1ccc(C#N)c(O[C@H](CCNC[C@@H](O)CO)c2ccccc2)n1 [GT-5025, 2-((R)-3-(((R)-2,3-dihydroxypropyl)amino)-1-phenylpropoxy)-6-methylnicotinonitrile] | 3.56 |  | 
Cc1ccc(C#N)c(O[C@H](CCNCC2CC2)c2ccccc2)n1 [GT-5031, (R)-2-(3-((cyclopropylmethyl)amino)-1-phenylpropoxy)-6-methylnicotinonitrile] | 4.54 |  | 
NCC[C@@H](Oc1cc(Cl)cc2[nH]cnc12)c1ccccc1 [GT-6041, (R)-3-((6-chloro-1H-benzo[d]imidazol-4-yl)oxy)-3-phenylpropan-1-amine] | 0.156 | 0.156 | 3.20
NCC[C@@H](Oc1cc(Cl)cc2[nH]ncc12)c1ccccc1 [GT-6045] | 0.231 | 0.231 | 4.73

SMILES | IC50 (iNOS [1]; Table C-1) [µM] | IC50 (iNOS [1]; Table C-2) [µM] | Fold (GT-xxxx)/AZ 6b (iNOS [2])
CNCC[C@@H](Oc1cc(Cl)cc2[nH]cnc12)c1ccccc1 [GT-6058, (R)-3-((6-chloro-1H-benzo[d]imidazol-4-yl)oxy)-N-methyl-3-phenylpropan-1-amine] | 0.457 | 0.457 | 9.36
CNCC[C@@H](Oc1cc(Cl)cc2[nH]ncc12)c1ccccc1 [GT-6059, (R)-3-((6-chloro-1H-indazol-4-yl)oxy)-N-methyl-3-phenylpropan-1-amine] | 0.252 | 0.252 | 5.16
OCCNCC[C@@H](Oc1cc(Cl)cc2[nH]cnc12)c1ccccc1 [GT-6060, (R)-2-((3-((6-chloro-1H-benzo[d]imidazol-4-yl)oxy)-3-phenylpropyl)amino)ethan-1-ol] | 0.444 | 0.444 | 9.10
N#Cc1ccc(Cl)cc1OC(CCN)c1ccnc(N)c1 (stereo not shown) [GT-6064, 2-(3-amino-1-(2-aminopyridin-4-yl)propoxy)-4-chlorobenzonitrile] | 0.0285 | 0.0285 | 0.58
N#Cc1ccc(Cl)cc1OC(CCN1C(=O)c2ccccc2C1=O)c1ccn2ccnc2c1 (stereo not shown) [GT-6065, 4-chloro-2-(3-(1,3-dioxoisoindolin-2-yl)-1-(imidazo[1,2-a]pyridin-7-yl)propoxy)benzonitrile] | 0.0678 | 0.0678 | 1.39
O=C1c2ccccc2C(=O)N1CC[C@@H](Oc1cc(Cl)cc2[nH]ncc12)c1ccccc1 [GT-6066, (R)-2-(3-((6-chloro-1H-indazol-4-yl)oxy)-3-phenylpropyl)isoindoline-1,3-dione] | 0.27 | 0.27 | 5.53
N#Cc1ccc(Cl)cc1C(=O)N(CCN)c1ccccc1Cl [GT-7002, N-(2-aminoethyl)-5-chloro-N-(2-chlorophenyl)-2-cyanobenzamide] | 0.112 | 0.112 | 2.30
Cl.N#Cc1ccc(Cl)cc1CN(CCN)c1ccccc1 [GT-7003, 2-(((2-aminoethyl)(phenyl)amino)methyl)-4-chlorobenzonitrile hydrochloride] | 0.064 | 0.064 | 1.31
N#Cc1ccc(Cl)cc1CN(CCN)c1ccccc1Cl [GT-7004, 2-(((2-aminoethyl)(2-chlorophenyl)amino)methyl)-4-chlorobenzonitrile hydrochloride] | 5.79 |  | 
NCCN(Cc1cc(Cl)ccc1Br)c1ccccc1 [GT-7006, N1-(2-bromo-5-chlorobenzyl)-N1-phenylethane-1,2-diamine] | 157 |  | 
NCCN(C(=O)c1cc(Cl)ccc1Br)c1ccccc1Cl [GT-7007, N-(2-aminoethyl)-2-bromo-5-chloro-N-(2-chlorophenyl) benzamide] | 0.0955 | 0.0955 | 1.96
NCCN(Cc1cc(Cl)ccc1Br)c1ccccc1Cl [GT-7008, N1-(2-bromo-5-chlorobenzyl)-N1-(2-chlorophenyl)ethane-1,2-diamine hydrochloride] | 5.56 |  | 
N#Cc1ccc(Cl)cc1C(=O)N(CCNCCO)c1ccccc1 [GT-7009, 5-chloro-2-cyano-N-(2-((2-hydroxyethyl)amino)ethyl)-N-phenylbenzamide] | 0.148 | 0.148 | 3.03
N#Cc1ccc(Cl)cc1CN(CCNCCO)c1ccccc1 [GT-7010, 4-chloro-2-(((2-((2-hydroxyethyl)amino)ethyl)(phenyl)amino)methyl) benzonitrile] | 9.18 |  | 
N#Cc1ccc(Cl)cc1C(=O)N(CCNCCCO)c1ccccc1 [GT-7011, 5-chloro-2-cyano-N-(2-((3-hydroxypropyl)amino)ethyl)-N-phenylbenzamide] | 0.29 | 0.29 | 5.94
N#Cc1ccc(Cl)cc1CN(CCNC[C@@H](O)CO)c1ccccc1 [GT-7016, (R)-4-chloro-2-(((2-((2,3-dihydroxypropyl)amino)ethyl)(phenyl)amino)methyl)benzonitrile] | 8.52 |  | 
N#Cc1ccc(Cl)cc1C(=O)N(CCNC(CO)CO)c1ccccc1 [GT-7017, 5-chloro-2-cyano-N-(2-((1,3-dihydroxypropan-2-yl)amino)ethyl)-N-phenylbenzamide] | 3.66 |  | 
N#Cc1ccc(Cl)cc1CN(CCNC(CO)CO)c1ccccc1 [GT-7018, 4-chloro-2-(((2-((1,3-dihydroxypropan-2-yl)amino)ethyl)(phenyl)amino)methyl)benzonitrile] | 20.3 |  | 
N#Cc1ccc(Cl)cc1CN(CCNCC1CC1)c1ccccc1 [GT-7020, 4-chloro-2-(((2-((cyclopropylmethyl)amino)ethyl)(phenyl)amino)methyl) benzonitrile] | 15.5 |  | 
